In patent US20030170693A1, “Assay for identifying modulators of Borrelia telomere resolvase” (priority 2001, published 2003):
pIC50: −log10 of the molar value. Like-named read-outs stand apart in the source and are kept apart here. Each block holds one compound with its values, some of them ahead of it.

Assays:
ResT = biological target: T1, ResT (Borreliella burgdorferi, UniProt O50979); test: In vitro telomere resolution by ResT (plasmid substrate, agarose gel); format: biochemical; details: for inhibition of ResT: 2 mM, data not shown; for concentration at which complete inhibition of ResT activity was observed: pYT1 as the substrate, agarose gel, FIG. 8A; for effect of peptide on in vitro ResT activity: peptide inhibitors of tyrosine recombinase or topoisomerase, FIG. 9
T1 construct: made in house; host or cells: E. coli BL21 (lambda DE3) pLysS, strain BGC88 carrying pKK4
T1 sequence (O50979 1-449): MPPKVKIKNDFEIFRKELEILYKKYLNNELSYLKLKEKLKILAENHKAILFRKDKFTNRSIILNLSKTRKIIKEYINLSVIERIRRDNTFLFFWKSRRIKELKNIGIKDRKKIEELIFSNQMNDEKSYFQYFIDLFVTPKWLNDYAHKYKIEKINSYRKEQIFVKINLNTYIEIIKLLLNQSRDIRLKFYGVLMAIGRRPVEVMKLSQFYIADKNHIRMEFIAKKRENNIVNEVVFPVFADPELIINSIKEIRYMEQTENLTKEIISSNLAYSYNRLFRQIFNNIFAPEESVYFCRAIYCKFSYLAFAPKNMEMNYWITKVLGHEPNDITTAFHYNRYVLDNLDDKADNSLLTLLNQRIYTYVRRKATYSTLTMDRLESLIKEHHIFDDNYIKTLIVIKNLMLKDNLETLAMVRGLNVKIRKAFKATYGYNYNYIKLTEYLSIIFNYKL
Procedure: The activity of the purified recombinant protein (ResT) was assayed using plasmids previously established to be in vivo substrates for telomere resolution in B. burgdorferi (Chaconas et al., 2001). pGCL15-6 has a 70 bp replicated left-end telomere from the linear plasmid Ip17 (FIG. 1B). Typical reaction conditions, herein defined as 1× reaction are as follows: 25 mM Tris-HCl [pH 8.5], 100 mM NaCl, 1 mM EDTA, 5 mM spermidine, 100 μg/ml bovine serum albumin, 5 μg/ml substrate DNA and 2 μg/ml ResT. Reactions (typically 30 μl) were incubated at 30° C. for 30 min and terminated by addition of SDS to a final concentration of 0.5%. Spermidine contributes an approximate 3-fold stimulation to the reaction and was therefore omitted from the reactions used for cleavage site determination. Linearized and relaxed plasmid substrates were prepared in 10-20 μg batches by reaction with the specified restriction enzyme with the manufacturers buffers or with Shope Fibroma Virus topoisomerase I (gift of Dr. David Evans, University of Guelph), in ResT reaction buffer. These reactions were then extracted with phenol/chloroform, chloroform alone, and subsequently ethanol precipitated and resuspended in 25 mM Hepes-NaOH [pH 7.6], 0.1 mM EDTA.
Reactions were performed containing increasing amounts of the topoisomerase inhibitors coumermycin A1 or novobiocin. The reactions were analyzed by agarose gel electrophoresis followed by staining with ethidium bromide.
In vitro ResT activity was assayed in the presence of peptide inhibitors provided by Dr. Anca Segall, San Diego State University. These peptides were previously characterized as inhibitors of tyrosine recombinase or topoisomerase activity (Cassell et al., 2000; Klemm et al., 2000). […] The results also raise the possibility for further development of peptide inhibitors of ResT for therapeutic and/or environmental agents to inhibit growth of Borrelia species.

[1] = tested on: B. burgdorferi strain (NGR) carrying a triple mutation in the gyrB gene; test: Growth of B. burgdorferi strain (NGR) carrying coumarin-resistant gyrase in culture; format: cell-based, Borrelia burgdorferi; details: read-out: IC50, inhibition of growth of B. burgdorferi carrying the resistant gyrase
Procedure: To determine whether coumermycin Al and novobiocin could block growth of B. burgdorferi in culture, a B. burgdorferi strain (NGR) carrying a triple mutation in the gyrB gene (Knight et al., 2000; Rosa et al., 1996) was used (provided by Dr. D. Scott Samuels, University of Montana, Missoula). The triple mutation in the gyrase B subunit renders the mutant DNA gyrase resistant to coumermycin A1 and novobiocin. B. burgdorferi carrying the resistant gyrase was grown in the absence, or in the presence of increasing amounts of coumermycin A1 or novobiocin. […] The drug concentrations for complete inhibition of growth were almost identical to the concentrations of both drugs required for complete inhibition of ResT in vitro.

Compound: CC[C@@]1(O)C(=O)OCc2c1cc1n(c2=O)Cc2cc3ccccc3nc2-1 [camptothecin]
- inhibition of ResT (ResT): did not inhibit

Compound: CCn1cc(C(=O)O)c(=O)c2ccc(C)nc21 [nalidixic acid]
- inhibition of ResT (ResT): did not inhibit

Compound: CO[C@@H]1[C@@H](OC(N)=O)[C@@H](O)[C@H](Oc2ccc3c(O)c(NC(=O)c4ccc(O)c(CC=C(C)C)c4)c(=O)oc3c2C)OC1(C)C [novobiocin]
- concentration at which complete inhibition of ResT activity was observed (ResT): 1 mM
- pIC50 ([1]; Borreliella burgdorferi): 3.59

- stimulation of the in vitro telomere resolution reaction (ResT; 5 mM spermidine in 1× reaction): ~3 fold
Compound: NCCCCNCCCN [spermidine]

Compound: Peptide #52: peptide which traps the Holliday junction intermediate in λ recombination (WKHYNY; Peptide #52)
- effect of peptide on in vitro ResT activity (ResT): did not have any effect

Compound: coumermycin A1
- concentration at which complete inhibition of ResT activity was observed (ResT): 0.15 mM
- pIC50 ([1]; gyrB triple mutant strain NGR, FIG. 8B): 4.12

Compound: peptide #59: peptide which inhibits DNA cleavage by λ integrase (KWWCRW; Peptide #59)
- effect of peptide on in vitro ResT activity (ResT): mild stimulator
